Assay results published in patent publication US7273885B2, “Inhibitors of serine proteases, particularly HCV NS3-NS4A protease” (Vertex Pharmaceuticals Incorporated, priority 2002, dated 2007).
Like-named read-outs stand apart in the source and are kept apart here. *1 amine or outer side, *2 acyl side, *3 side chain or, on linkers, in order; H or OH if unused. Where a SMILES comes first, the peptide text is derived from it. [ ]: non-standard residue; d: D form. The star is where a group is joined. Oic = O=C(O)[C@@H]1C[C@@H]2CCCC[C@@H]2N1; X2 = CCC[C@H](N[*:1])C(=O)C(=O)[*:2]; Chg = N[C@H](C(=O)O)C1CCCCC1; Tle = CC(C)(C)[C@H](N)C(=O)O; Hiv = CC(C)[C@H](O)C(=O)O; NHcPr = C1CC1N*

Tests used:
[1] = molecular target: HCV NS3-NS4A protease (tNS3 with KK4A) (Hepatitis C virus genotype 1a, UniProt P27958); experiment: HCV Ki assay (HPLC microbore separation of 5AB substrate and products); type: biochemical
Procedure: HPLC Microbore Method for Separation of 5AB Substrate and Products
• Substrate: • NH2-Glu-Asp-Val-Val-(alpha)Abu-Cys-Ser-Met-Ser-Tyr-COOH
A stock solution of 20 mM 5AB (or concentration of your choice) was made in DMSO w/ 0.2M DTT. This was stored in aliquots at −20 C.
Buffer: 50 mM HEPES, pH 7.8; 20% glycerol; 100 mM NaCl
Total assay volume was 100 μL
The buffer, KK4A, DTT, and tNS3 were combined; distributed 78 μL each into wells of 96 well plate. This was incubated at 30 C for ˜5–10 min.
2.5 μL of appropriate concentration of test compound was dissolved in DMSO (DMSO only for control) and added to each well. This was incubated at room temperature for 15 min.
Initiated reaction by addition of 20 μL of 250 μM 5AB substrate (25 μM concentration is equivalent or slightly lower than the Km for 5AB).
Incubated for 20 min at 30 C.
Terminated reaction by addition of 25 μL of 10% TFA
Transferred 120 μL aliquots to HPLC vials
Separated SMSY product from substrate and KK4A by the following method:
Microbore Separation Method:
Instrumentation: Agilent 1100
• Degasser G1322A • Binary pump G1312A • Autosampler G1313A • Column thermostated chamber G1316A • Diode array detector G1315A Column:
Phenomenex Jupiter; 5 micron C18; 300 angstroms; 150×2 mm; P/O 00F-4053-B0 • Column thermostat: 40 C • Injection volume: 100 μL • Solvent A=HPLC grade water+0.1% TFA • Solvent B=HPLC grade acetonitrile+0.1% TFA
• Stop time: 17 min • Post-run time: 10 min.

[2] = tested on: Cells containing hepatitis C virus (HCV) replicon; experiment: HCV replicon cell assay (Taqman RT-PCR of HCV RNA); type: cell-based
Procedure: HCV Replicon Cell Assay Protocol
Cells containing hepatitis C virus (HCV) replicon were maintained in DMEM containing 10% fetal bovine serum (FBS), 0.25 mg per ml of G418, with appropriate supplements (media A).
On day 1, replicon cell monolayer was treated with a trypsin:EDTA mixture, removed, and then media A was diluted into a final concentration of 100,000 cells per ml wit. 10,000 cells in 100 ul were plated into each well of a 96-well tissue culture plate, and cultured overnight in a tissue culture incubator at 37° C.
On day 2, compounds (in 100% DMSO) were serially diluted into DMEM containing 2% FBS, 0.5% DMSO, with appropriate supplements (media B). The final concentration of DMSO was maintained at 0.5% throughout the dilution series.
Media on the replicon cell monolayer was removed, and then media B containing various concentrations of compounds was added. Media B without any compound was added to other wells as no compound controls.
Cells were incubated with compound or 0.5% DMSO in media B for 48 hours in a tissue culture incubator at 37° C. At the end of the 48-hour incubation, the media was removed, and the replicon cell monolayer was washed once with PBS and stored at −80° C. prior to RNA extraction.
Culture plates with treated replicon cell monolayers were thawed, and a fixed amount of another RNA virus, such as Bovine Viral Diarrhea Virus (BVDV) was added to cells in each well. RNA extraction reagents (such as reagents from RNeasy kits) were added to the cells immediately to avoid degradation of RNA. Total RNA was extracted according the instruction of manufacturer with modification to improve extraction efficiency and consistency. Finally, total cellular RNA, including HCV replicon RNA, was eluted and stored at −80° C. until further processing.
A Taqman real-time RT-PCR quantification assay was set up with two sets of specific primers and probe. One was for HCV and the other was for BVDV. Total RNA extractants from treated HCV replicon cells was added to the PCR reactions for quantification of both HCV and BVDV RNA in the same PCR well. Experimental failure was flagged and rejected based on the level of BVDV RNA in each well. The level of HCV RNA in each well was calculated according to a standard curve run in the same PCR plate. The percentage of inhibition or decrease of HCV RNA level due to compound treatment was calculated using the DMSO or no compound control as 0% of inhibition. The IC50 (concentration at which 50% inhibition of HCV RNA level is observed) was calculated from the titration curve of any given compound.

[3] = 50% inhibition of HCV RNA level, 48-hour incubation, HCV replicon cells, read-out: IC50

Sequence of HCV NS3-NS4A protease (tNS3 with KK4A) (P27958 1027-1208): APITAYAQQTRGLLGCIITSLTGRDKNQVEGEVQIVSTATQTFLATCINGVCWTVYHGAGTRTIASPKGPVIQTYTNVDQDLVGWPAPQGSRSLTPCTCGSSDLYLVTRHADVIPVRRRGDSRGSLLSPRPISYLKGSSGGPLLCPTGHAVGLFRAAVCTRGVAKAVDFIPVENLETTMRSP

| Compound | Ki [1] [nM] | IC50 [2, 3] [nM] | IC50 ([2]; 48 h) [nM] |
| --- | --- | --- | --- |
| CCC[C@H](NC(=O)[C@@H]1C[C@@H]2CCCC[C@@H]2N1C(=O)[C@@H](NC(=O)[C@@H](NC(=O)c1cc2cc(F)ccc2[nH]1)C1CCCCC1)C(C)(C)C)C(=O)C(=O)NC1CC1 [Compound 18a] | < 500 | < 500 | – |
| CCC[C@H](NC(=O)[C@@H]1C[C@@H]2CCCC[C@@H]2N1C(=O)[C@@H](NC(=O)[C@@H](NC(=O)[C@@](C)(O)c1ccccc1)C1CCCCC1)C(C)(C)C)C(=O)C(=O)NC1CC1 [Compound 19a] | < 500 | 500 to 1000 | – |
| CCC[C@H](NC(=O)[C@@H]1C[C@@H]2CCCC[C@@H]2N1C(=O)[C@@H](NC(=O)[C@@H](NC(=O)[C@](C)(O)c1ccccc1)C1CCCCC1)C(C)(C)C)C(=O)C(=O)NC1CC1 [Compound 20a] | < 500 | 500 to 1000 | – |
| CCC[C@H](NC(=O)[C@@H]1C[C@@H]2CCCC[C@@H]2N1C(=O)[C@@H](NC(=O)[C@@H](NC(=O)C(=O)Nc1ccccc1)C1CCCCC1)C(C)(C)C)C(=O)C(=O)NC1CC1 [Compound 21a] | < 500 | – | < 500 |
| CCC[C@H](NC(=O)[C@@H]1C[C@@H]2CCCC[C@@H]2N1C(=O)[C@@H](NC(=O)[C@@H](NC(=O)C1(O)CCCC1)C1CCCCC1)C(C)(C)C)C(=O)C(=O)NC1CC1 [Compound 22a] | 500 to 1000 | 1000 to 5000 | – |
| CCC[C@H](NC(=O)[C@@H]1C[C@@H]2CCCC[C@@H]2N1C(=O)[C@@H](NC(=O)[C@@H](NC(=O)[C@@H](O)C(C)C)C1CCCCC1)C(C)(C)C)C(=O)C(=O)NC1CC1 [Compound 23a] (H-[Hiv][Chg][Tle][Oic][X2]-NHcPr) | < 500 | 1000 to 5000 | – |
| CCC[C@H](NC(=O)[C@@H]1C[C@@H]2CCCC[C@@H]2N1C(=O)[C@@H](NC(=O)[C@@H](NC(=O)C(=O)C(C)C)C1CCCCC1)C(C)(C)C)C(=O)C(=O)NC1CC1 [Compound 24a] | < 500 | 1000 to 5000 | – |
| CCC[C@H](NC(=O)[C@@H]1C[C@@H]2CCCC[C@@H]2N1C(=O)[C@@H](NC(=O)[C@@H](NC(=O)c1[nH]c(C)c(C)c1C(C)=O)C1CCCCC1)C(C)(C)C)C(=O)C(=O)NC1CC1 [Compound 25a] | < 500 | < 500 | – |
| CCC[C@H](NC(=O)[C@@H]1C[C@@H]2CCCC[C@@H]2N1C(=O)[C@@H](NC(=O)[C@@H](NC(=O)c1ccoc1)C1CCCCC1)C(C)(C)C)C(=O)C(=O)NC1CC1 [Compound 26a] | < 500 | 1000 to 5000 | – |
| CCC[C@H](NC(=O)[C@@H]1C[C@@H]2CCCC[C@@H]2N1C(=O)[C@@H](NC(=O)[C@@H](NC(=O)c1ccco1)C1CCCCC1)C(C)(C)C)C(=O)C(=O)NC1CC1 [Compound 27a] | < 500 | 1000 to 5000 | – |
| CCC[C@H](NC(=O)[C@@H]1C[C@@H]2CCCC[C@@H]2N1C(=O)[C@@H](NC(=O)[C@@H](NC(=O)c1[nH]c(C)c(C(C)=O)c1C)C1CCCCC1)C(C)(C)C)C(=O)C(=O)NC1CC1 [Compound 29a] | < 500 | 500 to 1000 | – |
| CCC[C@H](NC(=O)[C@@H]1C[C@@H]2CCCC[C@@H]2N1C(=O)[C@@H](NC(=O)[C@@H](NC(=O)c1ccccn1)C1CCCCC1)C(C)(C)C)C(=O)C(=O)NC1CC1 [Compound 30a] | 500 to 1000 | 1000 to 5000 | – |
| CCC[C@H](NC(=O)[C@@H]1C[C@@H]2CCCC[C@@H]2N1C(=O)[C@@H](NC(=O)[C@@H](NC(=O)c1cccnc1)C1CCCCC1)C(C)(C)C)C(=O)C(=O)NC1CC1 [Compound 31a] | < 500 | 1000 to 5000 | – |
| CCC[C@H](NC(=O)[C@@H]1C[C@@H]2CCCC[C@@H]2N1C(=O)[C@@H](NC(=O)[C@@H](NC(=O)c1ccncc1)C1CCCCC1)C(C)(C)C)C(=O)C(=O)NC1CC1 [Compound 32a] | < 500 | 1000 to 5000 | – |
| CCCC(NC(=O)[C@@H]1C[C@@H]2CCCC[C@@H]2N1C(=O)[C@@H](NC(=O)[C@@H](NC(=O)c1[nH]c(C)c(C)c1C(C)=O)C1CCCCC1)C(C)(C)C)C(=O)C(=O)NC1CC1 (stereo partly shown) [Compound 33a] | < 500 | < 500 | – |
| CCC[C@H](NC(=O)[C@@H]1C[C@@H]2CCCC[C@@H]2N1C(=O)[C@@H](NC(=O)[C@@H](NC(=O)c1[nH]c(C)c(C(=O)c2ccccc2)c1C#N)C1CCCCC1)C(C)(C)C)C(=O)C(=O)NC1CC1 [Compound 34a] | < 500 | 1000 to 5000 | – |
| CCC[C@H](NC(=O)[C@@H]1C[C@@H]2CCCC[C@@H]2N1C(=O)[C@@H](NC(=O)[C@@H](NC(=O)c1cnc2ccccc2n1)C1CCCCC1)C(C)(C)C)C(=O)C(=O)NC1CC1 [Compound 35a] | < 500 | 1000 to 5000 | – |
| CCC[C@H](NC(=O)[C@@H]1C[C@@H]2CCCC[C@@H]2N1C(=O)[C@@H](NC(=O)[C@@H](NC(=O)c1ccc2cccnc2n1)C1CCCCC1)C(C)(C)C)C(=O)C(=O)NC1CC1 [Compound 36a] | < 500 | 1000 to 5000 | – |
| CCC[C@H](NC(=O)[C@@H]1C[C@@H]2CCCC[C@@H]2N1C(=O)[C@@H](NC(=O)[C@@H](NC(=O)c1cc(C)c(C(C)=O)[nH]1)C1CCCCC1)C(C)(C)C)C(=O)C(=O)NC1CC1 [Compound 37a] | < 500 | < 500 | – |
| CCC[C@H](NC(=O)[C@@H]1C[C@@H]2CCCC[C@@H]2N1C(=O)[C@@H](NC(=O)[C@@H](NC(=O)c1[nH]c2ccccc2c1C(C)=O)C1CCCCC1)C(C)(C)C)C(=O)C(=O)NC1CC1 [Compound 39a, 3-Acetyl-1H-indole-2-carboxylic acid (cyclohexyl-{1-[2-(1-cyclopropylaminooxalyl-butylcarbamoyl)-octahydro-indole-1-carbonyl]-2,2-dimethyl-propylcarbamoyl}-methyl)-amide] | < 500 | < 500 | – |
| CCC[C@H](NC(=O)[C@@H]1C[C@@H]2CCCC[C@@H]2N1C(=O)[C@@H](NC(=O)[C@@H](NC(=O)c1cc2cc(C(C)=O)ccc2[nH]1)C1CCCCC1)C(C)(C)C)C(=O)C(=O)NC1CC1 [Compound 40a, 5-Acetyl-1H-indole-2-carboxylic acid (cyclohexyl-{1-[2-(1-cyclopropylaminooxalyl-butylcarbamoyl)-octahydro-indole-1-carbonyl]-2,2-dimethyl-propylcarbamoyl}-methyl)-amide] | < 500 | < 500 | – |
| CCC[C@@H](NC(=O)[C@@H]1C[C@@H]2CCCC[C@@H]2N1C(=O)[C@@H](NC(=O)[C@@H](NC(=O)c1[nH]c(C)c(C)c1C(C)=O)C1CCCCC1)C(C)(C)C)C(=O)C(=O)NC1CC1 [Compound 41a] | 1000 to 5000 | < 500 | – |
| CCC[C@H](NC(=O)[C@@H]1C[C@@H]2CCCC[C@@H]2N1C(=O)[C@@H](NC(=O)[C@@H](NC(=O)c1cc(CC)c(C(C)=O)[nH]1)C1CCCCC1)C(C)(C)C)C(=O)C(=O)NC1CC1 [Compound 42a] | < 500 | < 500 | – |
